{"source": "patent EP2348142B1", "about": "“Method and composition for removing scale deposits formed on a metal surface within a steam generating system” (Westinghouse Electric Company LLC, priority 2010, dated 2011)", "key": {"[1]": {"settings": "at 25 °C; cited from earlier work"}, "[2]": {"settings": "Example 1; both stages; covers B+S and B+S+M", "procedure": "An example embodiment of the present invention was evaluated in laboratory testing using mixtures of 0.06 g of boehmite and 0.06 g of silica sand (B+S) or of 0.06 g of boehmite, 0.06 g of silica sand, and 0.68 g of magnetite (B+S+M). These mixtures were heated at 80 °C for 1 day, with 40 mL volumes of a solution of 381 ppm (0.0381%) of TMAH in de-ionized water, adjusted with boric acid to a room-temperature pH of 11.0.\nAt the end of 1 day, the solutions were removed for analysis of dissolved Al, Si, and Fe, and the experiment on the residual solids was continued for an additional 2-day interval using fresh volumes of the original solutions. In addition to the fractions of each oxide dissolved during the experiment, the mole ratios of metals dissolved to base (TMAH or DMA) introduced were also calculated."}, "[3]": {"settings": "Example 2; for ratio of dissolved metals (Al, Si and Fe) to base: unadjusted solutions, both stages", "procedure": "Other example embodiments of the present invention were evaluated in laboratory testing using mixtures of 0.02 g of boehmite and 0.02 g of silica sand (B+S), and 0.23 g of magnetite (B+S+M). These mixtures were heated at 80 °C for 1 day, with 40 mL volumes of solutions of 1500 ppm (0.15%) of TMAH in de-ionized water, without pH adjustment, adjusted with boric acid to a room-temperature pH of 11.0, or adjusted with boric acid to a room-temperature pH of 9.0.\nAll the solutions were sparged with nitrogen for 15 minutes at the beginning of each experiment.\nAfter one day (∼ 24 hours), the solutions were removed for analysis of dissolved Al, Si, and Fe. The experiment on the residual solids was continued for an additional 2-day interval using fresh volumes of the original solutions. In addition to the fractions of each oxide dissolved during the experiment, the mole ratios of metals dissolved to base (TMAH or DMA) introduced were also calculated."}, "[4]": {"settings": "Example 3; both stages; covers B+S and B+S+M", "procedure": "Another example embodiment of the present invention was evaluated in laboratory testing using mixtures of 0.06 g of boehmite and 0.06 g of silica sand (B+S) or of 0.06 g of boehmite, 0.06 g of silica sand, and 0.68 g of magnetite (B+S+M). These mixtures were heated at 80 °C for 1 day with 40 mL volumes of a solution of 46 ppm (0.0046%) of TMAH in de-ionized water, having a room-temperature pH of 10.8.\nAt the end of 1 day, the solutions were removed and analyzed for dissolved Al, Si, and Fe. The experiment on the residual solids was continued for an additional 2-day interval using fresh volumes of the original solutions. In addition to the fraction of each oxide dissolved during the experiment, the mole ratios of metals dissolved to base (TMAH or DMA) introduced were also calculated."}, "[5]": {"settings": "Example 4; covers B+S and B+S+M", "procedure": "Another example embodiment of the present invention was evaluated in laboratory testing using mixtures of 0.06 g of boehmite and 0.06 g of silica sand (B+S) or of 0.06 g of boehmite, 0.06 g of silica sand, and 0.68 g of magnetite (B+S+M). These mixtures were heated at 80 °C for 1 day, with 40 mL volumes of a combined solution of 50.8 g/L (5.08%) of TMAH and 10 g•L^-1 (1%) of ethylenediaminetetra-acetic acid (EDTA) in de-ionized water.\nAt the end of 1 day, the solutions were removed for analysis of dissolved Al, Si, and Fe. In addition to fractions of each oxide dissolved during the experiment, the mole ratios of the amount of metals dissolved to base (TMAH or DMA) introduced were also calculated."}, "[6]": {"settings": "Example 11; base raised from 0.15-0.2 wt% to 5 wt%; covers both solids", "procedure": "In order to verify this assumption, solutions of TMAH were compared with those of the similarly strong base choline hydroxide (CholOH). Mixtures of 0.06 g sand + 0.06 g boehmite or 0.06 g sand + 0.06 g boehmite + 0.68 g magnetite were exposed to volumes of 40 mL of several solutions of TMAH or CholOH for 48 hours at a temperature of 80 °C. Each experiment was carried out in duplicate. The spent test solutions were analyzed to determine the concentrations of dissolved Si, Al, and Fe and the percentage of each of the corresponding oxides in the test solutions was calculated."}, "[7]": {"assay": "Dissolution of boehmite (Example 5)", "settings": "0.03 g boehmite alone"}, "[8]": {"assay": "Coupon corrosion test with pre-heated TMAH solutions (Example 9)", "settings": "5 wt% TMAH + 1 wt% EDTA", "experimental": "In order to determine the effect of possible thermal degradation of TMAH on its corrosivity towards steel, C1018 carbon steel coupons were tested in three solutions of 5 wt% TMAH + 1 wt% EDTA. […] One of these solutions was not pre-exposed to elevated temperatures. The second solution was exposed to a temperature of 130 ±10 °C for two days before being used in the test. During pre-heating period, the 20-mL Parr bomb in which the solution was heated was almost full, leaving very little vapor space above the solution. The third solution was similarly pre-heated at 130 ±10 °C for two days, but the Parr bomb was only half-full, holding 10 mL of solution and 10 mL of air. The three TMAH solutions were later used in testing of 1018 carbon steel coupons in 40 mL of testing solution for 1 week."}, "[9]": {"settings": "cited from earlier work"}}, "note": "Where two headings read alike, the source gives them in different places.", "data": [{"smiles": "CCCCN", "note": "[mono-N-butylamine]", "values": [{"measurement": "pH", "setting": "[1]", "value": 10.61}]}, {"smiles": "CNC", "note": "[DMA, dimethylamine, reference compound]", "values": [{"measurement": "ratio of dissolved Al to base", "setting": "[2]", "value": "0.06-0.07"}, {"measurement": "ratio of dissolved metals (Al, Si and Fe) to base", "setting": "[3]", "value": "0.03-0.06"}, {"measurement": "ratio of dissolved Al to base", "setting": "[4]", "value": "0.04-0.10"}, {"measurement": "ratio of total dissolved metal (predominantly dissolved Al) to introduced base", "setting": "[5]", "value": "0.02-0.04"}, {"measurement": "pKa", "setting": "[1]", "value": "about 10.61"}]}, {"smiles": "C[N+](C)(C)CCO.[OH-]", "note": "[CholOH, choline hydroxide]", "values": [{"measurement": "extent of dissolution of boehmite increased by a factor", "setting": "[6]", "value": "approximately 1.7"}]}, {"smiles": "C1=NCCCN2CCCCC12", "note": "(stereo not shown) [1,5-diazabicyclo(5,4,0)undec-5-ene]", "values": [{"measurement": "pH", "setting": "[1]", "value": 13.40}]}, {"smiles": "C[N+](C)(C)C.[OH-]", "note": "[TMAH, Tetramethylammonium hydroxide]", "values": [{"measurement": "dissolution of Al higher by a factor, versus DMA solution", "setting": "[7]", "value": 13}, {"measurement": "pH of the solution", "setting": "[8]; after pre-heating in the absence of air", "value": "approximately 13.4"}, {"measurement": "pH of the solution", "setting": "[8]; before pre-heating", "value": "approximately 13.0"}, {"measurement": "ratio of dissolved Al to base", "setting": "[2]", "value": "0.24-0.29"}, {"measurement": "mole ratios higher by factors, TMAH versus DMA", "setting": "[3]; pH adjusted solutions", "value": "2-8"}, {"measurement": "ratio of dissolved metals (Al, Si and Fe) to base", "setting": "[3]", "value": "0.09-0.10"}, {"measurement": "ratio of dissolved Al to base", "setting": "[4]", "value": "0.05-0.27"}, {"measurement": "more effective than DMA by a factor (mole ratio calculations)", "setting": "[5]", "value": "4-7"}, {"measurement": "ratio of total dissolved metal (predominantly dissolved Al) to introduced base", "setting": "[5]", "value": "0.15-0.16"}, {"measurement": "extent of dissolution of boehmite increased by a factor", "setting": "[6]", "value": "approximately 1.7"}, {"measurement": "thermally stable in aqueous solutions up to", "setting": "[9]", "value": "130-135 °C"}]}]}
